Among the data in BindingDB's records for doi:10.1021/jm034065z (Pfizer, 2003) are IC50 values, retold here.

This assay concerns the target Aldo-keto reductase family 1 member B1 (Homo sapiens, UniProt P15121). Briefly: In Vitro Aldose Reductase Inhibition Assay. The following applies: pH 7; 24 °C. The method, then: The activity of the enzyme was determined spectrophotometrically by monitoring the change in absorbance at 340 nm, which is due to the disappearance of NADPH. Inhibition by test compound was measured as the percentage decrease in the rate of NADPH oxidation as compared to a sample without test compound. The determination of the IC50 values was performed by using linear regression analysis of the log dose response curve.

As to `O=c1ccc(S(=O)(=O)c2cc3ccccc3o2)n[nH]1`, half-maximal inhibition (IC50) was put at 150 nM.

For `O=c1ccc(S(=O)(=O)c2cc3cc(Cl)ccc3o2)n[nH]1`, the IC50 (as a rule, the concentration that inhibits the measured activity by half) is 25 nM.
